This passage reports IC50 results from patent publication US6620818B1, “Method for reducing the severity of side effects of chemotherapy and/or radiation therapy” (priority 2001, dated 2003).

The target of the experiment is CDK1 (Homo sapiens, UniProt P06493). Kind of experiment: Cyclin dependent protein kinase assay, CDK1. Type of experiment: biochemical. The following applies: inhibitory activity against CDK1, baculovirus-expressed enzyme, [γ-32P]ATP peptide phosphorylation.
CDK1, sequence (P06493 whole entry, species assumed): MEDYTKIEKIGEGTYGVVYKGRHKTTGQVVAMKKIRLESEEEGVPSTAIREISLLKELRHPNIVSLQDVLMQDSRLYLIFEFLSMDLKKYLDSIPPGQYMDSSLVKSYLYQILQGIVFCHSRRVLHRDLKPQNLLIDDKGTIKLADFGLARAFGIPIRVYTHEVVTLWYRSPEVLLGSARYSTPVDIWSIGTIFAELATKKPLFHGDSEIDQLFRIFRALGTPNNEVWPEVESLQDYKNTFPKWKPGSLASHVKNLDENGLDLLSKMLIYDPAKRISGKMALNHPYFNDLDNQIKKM
CDK1, sequence (P14635 whole entry partner, species assumed): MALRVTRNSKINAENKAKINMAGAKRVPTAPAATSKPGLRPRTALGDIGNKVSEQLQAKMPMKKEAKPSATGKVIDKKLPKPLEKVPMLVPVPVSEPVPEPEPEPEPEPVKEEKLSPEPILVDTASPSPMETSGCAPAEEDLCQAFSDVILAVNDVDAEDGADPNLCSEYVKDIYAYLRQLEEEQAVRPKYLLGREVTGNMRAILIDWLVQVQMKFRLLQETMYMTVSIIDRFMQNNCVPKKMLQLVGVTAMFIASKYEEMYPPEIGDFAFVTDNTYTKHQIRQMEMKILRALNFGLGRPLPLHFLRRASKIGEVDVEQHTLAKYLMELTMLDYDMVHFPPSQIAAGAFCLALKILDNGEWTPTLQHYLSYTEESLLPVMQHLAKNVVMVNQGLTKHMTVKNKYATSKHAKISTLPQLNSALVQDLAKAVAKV
For the compound `CC(C)(CO)CNS(=O)(=O)c1ccc(NC=C2C(=O)Nc3ccc4ncsc4c32)cc1` [Compound A1], the IC50 fell in the range of 1 to 10 nM.

On to `O=C1Nc2ccc3ncsc3c2C1=CNc1ccc(S(=O)(=O)Nc2ccccn2)cc1` [Compound A2], for which the IC50 was 51 to 100 nM.

The compound `O=C1Nc2ccc3ncsc3c2C1=CNc1ccc(S(=O)(=O)NCc2ccncc2)cc1` [Compound A3] yielded an IC50 of 11 to 50 nM.

As usually defined, the IC50 is the point on the concentration scale where inhibition reaches its midpoint. A lower IC50 goes with greater potency in that assay.
